Measurements as given in patent US9260417B2, “Therapeutic methods and compositions involving allosteric kinase inhibition” (AMITECH THERAPEUTIC SOLUTIONS, INC., priority 2010, dated 2016).

Key:
CDC2L1 = CDC2L1 (Homo sapiens (Human), UniProt P21127); assay: KINOMEscan competitive binding assay; settings: 10 uM
PIM1 = PIM1 (Homo sapiens (Human), UniProt P11309); assay: KINOMEscan competitive binding assay; settings: 10 uM
tumor lines = assay: Tumor cell viability, summary over tumor lines; type: cell-based; settings: summary of Table 5
A549 cells = assay: Cell proliferation assay (BrdU ELISA) in A549 cells; type: cell-based; settings: A549, low serum DMEM (0.5% FBS), 72 h
Protocol: A549 cells, which endogenously express oncogenic K-RAS, were plated at 2500 cells/well of a 96-well plate in low serum DMEM (0.5% fetal bovine serum) overnight. The next morning, compounds were serially diluted in DMSO and resuspended in fresh DMEM+0.5% medium, which was added to the cells for 72 h. At this time point the cells were fixed and proliferation was quantified using an ELISA for bromodeoxyuriding incorporation (BrdU ELISA, Millipore, Inc.). BrdU incorporation occurs during S phase and is the classical method for determining cell proliferation rates. In FIG. 14B-C, BrdU incorporation is expressed as a percentage of the BrdU incorporation occurring in cells treated with 0.1% DMSO as control. A dotted line represents the growth rate of cells treated with DMSO alone. […] (FIG. 13C)

1205 Lu melanoma cells = assay: 1205 Lu melanoma subcutaneous xenograft; type: in vivo, mice; settings: 50 mg/kg, bid, ip for 2 weeks
Protocol: Human 1205 Lu melanoma cells, which express BRAF V600E, were subcutaneously implanted into the flank of 6-8 week old female Nu/Nu mice. The tumor cells were trypsinized and resuspendend in 1:1 PBS:growth factor depeleted Matrigel (BD Biosciences) and […] containing 1×10^6 cells was injected into the flank. An excess of mice bearing tumors were utilized and groups of 6 animals were chosen based on the symmetry of the tumor and randomized to give each group an average of 50 mm^3 (day 10). […] The vehicle was 10% HS-15 (known as Solutol, BASF, Inc.) in 3.33% dextrose. Tumor growth was monitored by measuring the tumor length and width with precision calipers every 3 days and calculating tumor volume using the following formula: Tumor volume=0.5*(length)*(width)^2, provided the smaller measurement was utilized as the length.

PFTK1 = PFTK1 (Homo sapiens (Human), UniProt O94921); assay: KINOMEscan competitive binding assay; settings: 10 uM
[1] = test system: VEGF-C induced lymphangiogenesis; assay: Lymph node lymphangiogenesis model (VEGF-C Matrigel); type: in vivo, mice; settings: 200 μl of 5.25 mg/ml ip twice daily, 7 days
Protocol: (FIG. 12A) Images of local lymph node lymphangiogenesis model between saline and VEGF-C matrigel.
Lymphangiogenesis assays were performed by subcutaneously injecting 350 μl of cold Matrigel containing saline or […] of VEGF-C(R&D Systems, Minneapolis, Minn.) into wild-type C57B1/6 mice. […] After 7 days, lymph nodes were removed, embedded in OCT, frozen and sectioned. Thin sections (5 μm) were fixed in ice cold acetone for five minutes, permeabilized in 0.1% Triton X-100 in phosphate buffered saline (PBS), blocked in 8% normal donkey serum diluted in PBS for 1.5 hours at room temperature and then incubated with 2 μg/ml anti-murine Lyve-1 (RDI-103PA50) in 8% normal donkey serum diluted in saline overnight at 4° C. After extensive washing, slides were incubated with 1 μg/ml cross-absorbed donkey anti-rabbit IgG (H+L) conjugated with Alexa Fluor 488 (Invitrogen). Slides were counterstained with DAPI. Coverslips were mounted with Dako Cytomation fluorescent mounting medium (Dako Corporation, Carpinteria, Calif.). At least five microscopic fields per tissue section/mouse were analyzed for quantification studies.

CDC2L2 = CDC2L2 (Homo sapiens (Human), UniProt Q9UQ88); assay: KINOMEscan competitive binding assay; settings: 10 uM
PRKD1 = PRKD1 (Homo sapiens (Human), UniProt Q15139); assay: KINOMEscan competitive binding assay; settings: 10 uM
B-RAF (V600E) = assay: ERK phosphorylation in 1205Lu melanoma cells expressing B-RAF V600E; type: cell-based, human; settings: 10 μM, 1 h
DYRK1B = DYRK1B (Homo sapiens (Human), UniProt Q9Y463); assay: KINOMEscan competitive binding assay; settings: 10 uM
SRC = SRC (Homo sapiens (Human), UniProt P12931); assay: KINOMEscan competitive binding assay; settings: 10 uM
PAK1 = PAK1 (Homo sapiens (Human), UniProt Q13153); assay: KINOMEscan competitive binding assay; settings: 10 uM
B-RAF/C-RAF dimerization = B-RAF/C-RAF dimerization (Homo sapiens (Human), UniProt P15056); assay: B-RAF/C-RAF dimerization in XPA-1 pancreatic cancer cells (immunoprecipitation/Western); type: cell-based; settings: XPA-1 cells
1205Lu = assay: Tumor cell viability; type: cell-based, human; settings: Melanoma 1205Lu, B-RAF V600E
Protocol: (§1) For XTT assays, cells were grown in 96-well plates overnight and all assays were conducted in growth medium will full serum and additives. Compounds were serially diluted in DMSO and then further diluted into the medium to give the appropriate concentration while minimizing precipitation associated with serial diluting in medium alone Inhibitors were added for 72 h and cell viability was quantified at 450 nm after the addition of 1 mg/ml XTT solution (Sigma-Aldrich) in phenol-red free DMEM medium containing […] (Sigma-Aldrich). Dose-response curves were plotted using GraphPad Prism software and EC50s were calculated using this program.

XPA1-RFP = assay: Tumor cell viability; type: cell-based, human; settings: Pancreatic AC XPA1-RFP, K-Ras
Protocol: as §1

[2] = Treatment of fibrosis in patients with interstitial lung disease; type: in vivo, human; settings: 50 mg/Kg/day, oral, 6 months
Protocol: This can include patients referred for presumed pulmonary fibrosis/interstitial pneumonitis (IPF, UIP, NSIP), sarcoidosis, hypersensitivity pneumonitis, cryptogenic organising pneumonia, drug-induced, or other idiopathic ILDs. The patients are evaluated after 6 months of treatment.

CDK11 = CDK11 (Homo sapiens (Human), UniProt Q9BWU1); assay: KINOMEscan competitive binding assay; settings: 10 uM
MLK3 = MLK3 (Homo sapiens (Human), UniProt Q16584); assay: KINOMEscan competitive binding assay; settings: 10 uM

In the case of CSc1nc(N)cc(Oc2ccc(-c3nnc(Nc4cccc(C(F)(F)F)c4)[nH]3)cc2)n1 [Compound 6], the “% Control” value (CDC2L1) is reported as 70%, the “% Control” value (PIM1) is reported as 96% and the “times more potent than sorafenib” value (tumor lines) is reported as 15-100 times. The EC50 (tumor lines; read-out: EC50 in wide range of tumor lines) was 100 to 600 nM, the “cell proliferation (BrdU incorporation) versus DMSO control” value (A549 cells) was “inhibitor cell proliferation” and the melanoma tumor growth (1205 Lu melanoma cells) was “suppresses melanoma tumor growth in vivo”. The “% Control” value (PFTK1) was 71%, the “lymphangiogenesis in lymph nodes” value [1] was “clearly showed inhibition of lymphangiogenesis” and the “% Control” value (CDC2L2) was 83%. For the same molecule, the “% Control” value (PRKD1) was 100%, the “phosphorylation of ERK T202/Y204 in cells expressing constitutively active B-RAF (V600E)” value (B-RAF (V600E)) was “completely disrupted” and the “% Control” value (DYRK1B) was 85%. The “% Control” value (SRC) was 90%, the “% Control” value (PAK1) was 100% and the “RAF dimerization and pS338-CRAF” value (B-RAF/C-RAF dimerization) was “prevent RAF dimerization and pS338-CRAF”. The EC50 (1205Lu) was 830 nM, the EC50 (XPA1-RFP) was 280 nM and the “outcome of fibrosis treatment versus placebo” value [2] was “improvement over placebo group”. The “% Control” value (CDK11) was 32% and the “% Control” value (MLK3) was 96%.
